Tests used:
Test in all cases: relative viability (nuclei count vs DMSO), 5 days (fraction); higher = more cells survive
EPLC-272H = tested on: EPLC-272H
Outline: (§1)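 Relative viability equals treated-well nuclei counts divided by vehicle-well nuclei counts. Counts came from 4× images of lung cancer cell lines grown in 1536-well plates for 5 days after pin-tool dosing on the day after seeding. Dosing used one drug alone or a fixed anchor-drug dose plus five library-drug doses (not always all listed) in √10 steps, and values are medians of duplicate plates.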

H3255 = tested on: H3255
Outline: as §1

HARA = tested on: HARA
Outline: as §1

LC-2-ad = tested on: LC-2-ad
Outline: as §1

LOU-NH91 = tested on: LOU-NH91
Outline: as §1

NCI-H1650 = tested on: NCI-H1650
Outline: as §1

NCI-H1651 = tested on: NCI-H1651
Outline: as §1

NCI-H1975 = tested on: NCI-H1975
Outline: as §1

NCI-H2009 = tested on: NCI-H2009
Outline: as §1

NCI-H2023 = tested on: NCI-H2023
Outline: as §1

NCI-H2085 = tested on: NCI-H2085
Outline: as §1

NCI-H2087 = tested on: NCI-H2087
Outline: as §1

NCI-H2170 = tested on: NCI-H2170
Outline: as §1

NCI-H2228 = tested on: NCI-H2228
Outline: as §1

NCI-H23 = tested on: NCI-H23
Outline: as §1

NCI-H441 = tested on: NCI-H441
Outline: as §1

NCI-H650 = tested on: NCI-H650
Outline: as §1

NCI-H727 = tested on: NCI-H727
Outline: as §1

NCI-H838 = tested on: NCI-H838
Outline: as §1

PC-3 [JPC-3] = tested on: PC-3 [JPC-3]
Outline: as §1

SW 1573 = tested on: SW 1573
Outline: as §1

SW 900 = tested on: SW 900
Outline: as §1

UMC-11 = tested on: UMC-11
Outline: as §1

CCNC(=O)c1noc(-c2cc(C(C)C)c(O)cc2O)c1-c1ccc(CN2CCOCC2)cc1 [Luminespib] + Cc1cc(Nc2cc(N3CCN(C)CC3)nc(Sc3ccc(NC(=O)C4CC4)cc3)n2)n[nH]1 [Tozasertib] (partner 0.1 µM)
relative viability (EPLC-272H; first compound 0.002 µM): 0.282
relative viability (EPLC-272H; first compound 0.006325 µM): 0.296
relative viability (EPLC-272H; first compound 0.06325 µM): 0.399
relative viability (EPLC-272H; first compound 0.2 µM): 0.22
relative viability (H3255; first compound 0.002 µM): 0.7
relative viability (H3255; first compound 0.006325 µM): 0.69
relative viability (H3255; first compound 0.06325 µM): 0.7
relative viability (H3255; first compound 0.2 µM): 0.25
relative viability (HARA; first compound 0.002 µM): 0.158
relative viability (HARA; first compound 0.006325 µM): 0.103
relative viability (HARA; first compound 0.02 µM): 0.106
relative viability (HARA; first compound 0.06325 µM): 0.172
relative viability (HARA; first compound 0.2 µM): 0.339
relative viability (LC-2-ad; first compound 0.002 µM): 0.482
relative viability (LC-2-ad; first compound 0.006325 µM): 0.493
relative viability (LC-2-ad; first compound 0.02 µM): 0.414
relative viability (LC-2-ad; first compound 0.06325 µM): 0.258
relative viability (LC-2-ad; first compound 0.2 µM): 0.251
relative viability (LOU-NH91; first compound 0.002 µM): 0.685
relative viability (LOU-NH91; first compound 0.006325 µM): 0.664
relative viability (LOU-NH91; first compound 0.02 µM): 0.428
relative viability (LOU-NH91; first compound 0.06325 µM): 0.265
relative viability (LOU-NH91; first compound 0.2 µM): 0.282
relative viability (NCI-H1650; first compound 0.002 µM): 0.412
relative viability (NCI-H1650; first compound 0.006325 µM): 0.455
relative viability (NCI-H1650; first compound 0.02 µM): 0.168
relative viability (NCI-H1650; first compound 0.06325 µM): 0.153
relative viability (NCI-H1650; first compound 0.2 µM): 0.145
relative viability (NCI-H1651; first compound 0.002 µM): 0.812
relative viability (NCI-H1651; first compound 0.006325 µM): 0.577
relative viability (NCI-H1651; first compound 0.02 µM): 0.611
relative viability (NCI-H1651; first compound 0.06325 µM): 0.313
relative viability (NCI-H1651; first compound 0.2 µM): 0.154
relative viability (NCI-H1975; first compound 0.002 µM): 0.759
relative viability (NCI-H1975; first compound 0.006325 µM): 0.745
relative viability (NCI-H1975; first compound 0.02 µM): 0.603
relative viability (NCI-H1975; first compound 0.06325 µM): 0.1
relative viability (NCI-H1975; first compound 0.2 µM): 0.093
relative viability (NCI-H2009; first compound 0.002 µM): 0.766
relative viability (NCI-H2009; first compound 0.006325 µM): 0.746
relative viability (NCI-H2009; first compound 0.02 µM): 0.798
relative viability (NCI-H2009; first compound 0.06325 µM): 0.28
relative viability (NCI-H2009; first compound 0.2 µM): 0.114
relative viability (NCI-H2023; first compound 0.002 µM): 0.395
relative viability (NCI-H2023; first compound 0.006325 µM): 0.389
relative viability (NCI-H2023; first compound 0.02 µM): 0.343
relative viability (NCI-H2023; first compound 0.06325 µM): 0.0657
relative viability (NCI-H2023; first compound 0.2 µM): 0.0748
relative viability (NCI-H2085; first compound 0.002 µM): 0.804
relative viability (NCI-H2085; first compound 0.006325 µM): 0.749
relative viability (NCI-H2085; first compound 0.02 µM): 0.758
relative viability (NCI-H2085; first compound 0.06325 µM): 0.879
relative viability (NCI-H2085; first compound 0.2 µM): 0.607
relative viability (NCI-H2087; first compound 0.002 µM): 0.26
relative viability (NCI-H2087; first compound 0.006325 µM): 0.29
relative viability (NCI-H2087; first compound 0.02 µM): 0.243
relative viability (NCI-H2087; first compound 0.06325 µM): 0.113
relative viability (NCI-H2087; first compound 0.2 µM): 0.0985
relative viability (NCI-H2170; first compound 0.002 µM): 0.72
relative viability (NCI-H2170; first compound 0.006325 µM): 0.737
relative viability (NCI-H2170; first compound 0.02 µM): 0.398
relative viability (NCI-H2170; first compound 0.06325 µM): 0.299
relative viability (NCI-H2170; first compound 0.2 µM): 0.158
relative viability (NCI-H2228; first compound 0.002 µM): 0.353
relative viability (NCI-H2228; first compound 0.006325 µM): 0.274
relative viability (NCI-H2228; first compound 0.02 µM): 0.139
relative viability (NCI-H2228; first compound 0.06325 µM): 0.101
relative viability (NCI-H2228; first compound 0.2 µM): 0.136
relative viability (NCI-H23; first compound 0.002 µM): 0.333
relative viability (NCI-H23; first compound 0.006325 µM): 0.351
relative viability (NCI-H23; first compound 0.02 µM): 0.345
relative viability (NCI-H23; first compound 0.06325 µM): 0.279
relative viability (NCI-H23; first compound 0.2 µM): 0.229
relative viability (NCI-H441; first compound 0.002 µM): 0.671
relative viability (NCI-H441; first compound 0.006325 µM): 0.507
relative viability (NCI-H441; first compound 0.02 µM): 0.647
relative viability (NCI-H441; first compound 0.06325 µM): 0.186
relative viability (NCI-H441; first compound 0.2 µM): 0.148
relative viability (NCI-H650; first compound 0.002 µM): 0.805
relative viability (NCI-H650; first compound 0.006325 µM): 0.695
relative viability (NCI-H650; first compound 0.02 µM): 0.516
relative viability (NCI-H650; first compound 0.06325 µM): 0.199
relative viability (NCI-H650; first compound 0.2 µM): 0.0951
relative viability (NCI-H727; first compound 0.002 µM): 0.61
relative viability (NCI-H727; first compound 0.006325 µM): 0.614
relative viability (NCI-H727; first compound 0.02 µM): 0.505
relative viability (NCI-H727; first compound 0.06325 µM): 0.314
relative viability (NCI-H727; first compound 0.2 µM): 0.291
relative viability (NCI-H838; first compound 0.002 µM): 0.272
relative viability (NCI-H838; first compound 0.006325 µM): 0.215
relative viability (NCI-H838; first compound 0.02 µM): 0.308
relative viability (NCI-H838; first compound 0.06325 µM): 0.164
relative viability (NCI-H838; first compound 0.2 µM): 0.123
relative viability (PC-3 [JPC-3]; first compound 0.002 µM): 0.892
relative viability (PC-3 [JPC-3]; first compound 0.006325 µM): 0.845
relative viability (PC-3 [JPC-3]; first compound 0.02 µM): 0.801
relative viability (PC-3 [JPC-3]; first compound 0.06325 µM): 0.656
relative viability (PC-3 [JPC-3]; first compound 0.2 µM): 0.375
relative viability (SW 1573; first compound 0.002 µM): 0.199
relative viability (SW 1573; first compound 0.006325 µM): 0.175
relative viability (SW 1573; first compound 0.02 µM): 0.173
relative viability (SW 1573; first compound 0.06325 µM): 0.113
relative viability (SW 1573; first compound 0.2 µM): 0.0892
relative viability (SW 900; first compound 0.002 µM): 0.638
relative viability (SW 900; first compound 0.006325 µM): 0.623
relative viability (SW 900; first compound 0.02 µM): 0.591
relative viability (SW 900; first compound 0.06325 µM): 0.15
relative viability (SW 900; first compound 0.2 µM): 0.117
relative viability (UMC-11; first compound 0.002 µM): 0.211
relative viability (UMC-11; first compound 0.006325 µM): 0.191
relative viability (UMC-11; first compound 0.02 µM): 0.194
relative viability (UMC-11; first compound 0.06325 µM): 0.242
relative viability (UMC-11; first compound 0.2 µM): 0.196
